In article PMC5218480 (PLoS ONE, 2017):

Tested on: MV-4-11 cells
Experiment: Gene expression microarray analysis (Affymetrix PrimeView) and GSEA
Type: cell-based, human
Set-up: RFU PODN (11730768_x_at) / Fold change /veh PODN (11730768_x_at) / RFU LINC00158 (11744669_a_at) / Fold change /veh LINC00158 (11744669_a_at) / RFU DUSP10 (11751237_a_at) / Fold change /veh DUSP10 (11751237_a_at) / RFU ID3 (11757404_x_at) / Fold change /veh ID3 (11757404_x_at) / RFU PLEKHG5 (11737974_s_at) / Fold change /veh PLEKHG5 (11737974_s_at) / RFU LRRC4B (11730491_at) / Fold change /veh LRRC4B (11730491_at) / RFU GIMAP4 (11747438_a_at) / Fold change /veh GIMAP4 (11747438_a_at) / RFU KRT8 (11758183_x_at) / Fold change /veh KRT8 (11758183_x_at) / RFU CNN1 (11734310_a_at) / Fold change /veh CNN1 (11734310_a_at) / RFU VPS37D (11726825_at) / Fold change /veh VPS37D (11726825_at) / RFU C10orf10 (11716522_x_at) / Fold change /veh C10orf10 (11716522_x_at) / RFU KIR2DL2 /// KIR2DL4 /// KIR2DL5A /// KIR2DL5B /// KIR2DS1 /// KIR2DS2 /// KIR2DS3 /// KIR2DS4 /// KIR3DL3 /// KIR3DL3 /// KIR3DS1 (11738374_at) / Fold change /veh KIR2DL2 /// KIR2DL4 /// KIR2DL5A /// KIR2DL5B /// KIR2DS1 /// KIR2DS2 /// KIR2DS3 /// KIR2DS4 /// KIR3DL3 /// KIR3DL3 /// KIR3DS1 (11738374_at) / RFU C1QL1 (11718748_at) / Fold change /veh C1QL1 (11718748_at) / RFU TMPRSS4 (11747572_a_at) / Fold change /veh TMPRSS4 (11747572_a_at) / RFU HAMP (11756126_x_at) / Fold change /veh HAMP (11756126_x_at) / RFU RNFT2 (11725882_a_at) / Fold change /veh RNFT2 (11725882_a_at) / RFU NR4A2 (11747474_a_at) / Fold change /veh NR4A2 (11747474_a_at) / RFU ABCC12 (11746883_a_at) / Fold change /veh ABCC12 (11746883_a_at) / RFU TMEM136 (11760407_x_at) / Fold change /veh TMEM136 (11760407_x_at) / RFU CLDN22 /// WWC2 (11732394_at) / Fold change /veh CLDN22 /// WWC2 (11732394_at) / RFU HLA-DPB1 (11760878_x_at) / Fold change /veh HLA-DPB1 (11760878_x_at) / RFU SPINT1 (11716480_a_at) / Fold change /veh SPINT1 (11716480_a_at) / RFU GAP43 (11754022_s_at) / Fold change /veh GAP43 (11754022_s_at) / RFU A4GNT (11735810_at) / Fold change /veh A4GNT (11735810_at) / RFU PRB3 (11715151_x_at) / Fold change /veh PRB3 (11715151_x_at) / RFU TUBB4B (11761932_at) / Fold change /veh TUBB4B (11761932_at) / RFU CAPN14 (11732068_a_at) / Fold change /veh CAPN14 (11732068_a_at) / RFU TMCC2 (11721928_a_at) / Fold change /veh TMCC2 (11721928_a_at) / RFU IRGQ (11745062_a_at) / Fold change /veh IRGQ (11745062_a_at) / RFU FAM174B (11720279_a_at) / Fold change /veh FAM174B (11720279_a_at) / RFU TMPRSS4 (11748680_a_at) / Fold change /veh TMPRSS4 (11748680_a_at) / RFU FAM212B (11763350_a_at) / Fold change /veh FAM212B (11763350_a_at) / RFU PLEKHG5 (11743358_a_at) / Fold change /veh PLEKHG5 (11743358_a_at) / RFU ZSCAN30 (11745921_a_at) / Fold change /veh ZSCAN30 (11745921_a_at) / RFU CMKLR1 (11741424_a_at) / Fold change /veh CMKLR1 (11741424_a_at) / RFU LOC101060620 /// MAPK8IP1 (11723275_at) / Fold change /veh LOC101060620 /// MAPK8IP1 (11723275_at) / RFU SPTSSB (11747773_x_at) / Fold change /veh SPTSSB (11747773_x_at) / RFU PRSS12 (11739890_at) / Fold change /veh PRSS12 (11739890_at) / RFU BIN1 (11741810_x_at) / Fold change /veh BIN1 (11741810_x_at) / RFU WNT11 (11732464_a_at) / Fold change /veh WNT11 (11732464_a_at) / RFU C10orf10 (11716521_a_at) / Fold change /veh C10orf10 (11716521_a_at) / RFU C5orf56 (11738089_at) / Fold change /veh C5orf56 (11738089_at) / RFU CYB561 (11721691_x_at) / Fold change /veh CYB561 (11721691_x_at) / RFU ANKRD19P (11752326_a_at) / Fold change /veh ANKRD19P (11752326_a_at) / RFU OR2T12 /// OR2T33 /// OR2T8 (11738714_s_at) / Fold change /veh OR2T12 /// OR2T33 /// OR2T8 (11738714_s_at) / RFU VCAN (11748164_a_at) / Fold change /veh VCAN (11748164_a_at) / RFU JSRP1 (11732532_at) / Fold change /veh JSRP1 (11732532_at) / RFU KRTAP10-11 (11738290_x_at) / Fold change /veh KRTAP10-11 (11738290_x_at) / RFU MYO3A (11730013_a_at) / Fold change /veh MYO3A (11730013_a_at) / RFU EBF3 (11725865_a_at) / Fold change /veh EBF3 (11725865_a_at) / RFU CAMK2N1 (11719241_x_at) / Fold change /veh CAMK2N1 (11719241_x_at) / RFU C5orf56 (11738088_a_at) / Fold change /veh C5orf56 (11738088_a_at) / RFU OLFML3 (11715873_a_at) / Fold change /veh OLFML3 (11715873_a_at) / RFU LOC100653217 /// NTM (11731650_a_at) / Fold change /veh LOC100653217 /// NTM (11731650_a_at) / RFU MAPK11 (11762145_a_at) / Fold change /veh MAPK11 (11762145_a_at) / RFU FIZ1 (11724087_x_at) / Fold change /veh FIZ1 (11724087_x_at) / RFU OASL (11726364_x_at) / Fold change /veh OASL (11726364_x_at) / RFU SOX15 (11748057_x_at) / Fold change /veh SOX15 (11748057_x_at) / RFU CD79A (11719716_a_at) / Fold change /veh CD79A (11719716_a_at) / RFU HIST1H1D (11736915_at) / Fold change /veh HIST1H1D (11736915_at) / RFU CASKIN2 (11723855_a_at) / Fold change /veh CASKIN2 (11723855_a_at) / RFU LOC730098 (11760151_x_at) / Fold change /veh LOC730098 (11760151_x_at) / RFU OR4N2 (11742367_at) / Fold change /veh OR4N2 (11742367_at) / RFU PRRT2 (11749266_a_at) / Fold change /veh PRRT2 (11749266_a_at) / RFU SNX32 (11753110_a_at) / Fold change /veh SNX32 (11753110_a_at) / RFU CDHR5 (11726645_a_at) / Fold change /veh CDHR5 (11726645_a_at) / RFU RCAN1 (11760418_a_at) / Fold change /veh RCAN1 (11760418_a_at) / RFU FAM167A (11723789_a_at) / Fold change /veh FAM167A (11723789_a_at) / RFU FAM26E (11764081_at) / Fold change /veh FAM26E (11764081_at) / RFU ISYNA1 (11749810_s_at) / Fold change /veh ISYNA1 (11749810_s_at) / RFU ACY1 (11761880_at) / Fold change /veh ACY1 (11761880_at) / RFU 11764098_at / Fold change /veh 11764098_at / RFU SAMD14 (11745864_x_at) / Fold change /veh SAMD14 (11745864_x_at) / RFU NPB (11741838_a_at) / Fold change /veh NPB (11741838_a_at) / RFU TMPRSS6 (11731388_a_at) / Fold change /veh TMPRSS6 (11731388_a_at) / RFU KRTAP10-2 (11738614_at) / Fold change /veh KRTAP10-2 (11738614_at) / RFU ARHGAP8 /// PRR5-ARHGAP8 (11727945_x_at) / Fold change /veh ARHGAP8 /// PRR5-ARHGAP8 (11727945_x_at) / RFU KRTAP5-7 /// NADSYN1 (11734609_at) / Fold change /veh KRTAP5-7 /// NADSYN1 (11734609_at) / RFU RASL12 (11751679_a_at) / Fold change /veh RASL12 (11751679_a_at) / RFU CDKN2B (11736163_a_at) / Fold change /veh CDKN2B (11736163_a_at) / RFU PRF1 (11729649_at) / Fold change /veh PRF1 (11729649_at) / RFU, ZNF638 /// ZNF638-IT1 / Fold change vs veh, ZNF638 /// ZNF638-IT1 / RFU, PANK3 / Fold change vs veh, PANK3 / RFU, SH3YL1 / Fold change vs veh, SH3YL1 / RFU, ZEB2 / Fold change vs veh, ZEB2 / RFU, NRIP1 / Fold change vs veh, NRIP1 / RFU, PTTG1IP / Fold change vs veh, PTTG1IP / RFU, CAPN2 / Fold change vs veh, CAPN2 / RFU, MED14 / Fold change vs veh, MED14 / RFU, SNORA58 / Fold change vs veh, SNORA58 / RFU, C1orf63 / Fold change vs veh, C1orf63 / RFU, LRRFIP1 / Fold change vs veh, LRRFIP1 / RFU, NDUFAF7 / Fold change vs veh, NDUFAF7 / RFU, SLC12A2 / Fold change vs veh, SLC12A2 / RFU, IBTK / Fold change vs veh, IBTK / RFU, ESF1 / Fold change vs veh, ESF1 / Fold change vs veh, TMEM50B / RFU, TAOK1 / Fold change vs veh, TAOK1 / RFU, ACBD3 / Fold change vs veh, ACBD3 / RFU, TMA16 / Fold change vs veh, TMA16 / RFU, RWDD3 / Fold change vs veh, RWDD3 / RFU, BCAT1 / Fold change vs veh, BCAT1 / RFU, EDEM3 / Fold change vs veh, EDEM3 / RFU, TMEM33 / Fold change vs veh, TMEM33 / RFU, WDR75 / Fold change vs veh, WDR75 / RFU, AHCTF1 / Fold change vs veh, AHCTF1 / RFU, TFRC / Fold change vs veh, TFRC / RFU, ZDHHC17 / Fold change vs veh, ZDHHC17 / RFU, NOM1 / Fold change vs veh, NOM1 / RFU, ARL8B / Fold change vs veh, ARL8B / RFU, ZBTB11 / Fold change vs veh, ZBTB11 / RFU, TAMM41 / Fold change vs veh, TAMM41 / RFU, KIAA1704 /// LOC100996395 / Fold change vs veh, KIAA1704 /// LOC100996395 / RFU, ING1 / Fold change vs veh, ING1 / RFU, TRMT61B / Fold change vs veh, TRMT61B / RFU, FUBP3 / Fold change vs veh, FUBP3 / RFU, TP53 / Fold change vs veh, TP53 / RFU, TNKS2 / Fold change vs veh, TNKS2 / RFU, ZFP14 / Fold change vs veh, ZFP14 / RFU, ACTR2 / Fold change vs veh, ACTR2 / RFU, PPP3R1 / Fold change vs veh, PPP3R1 / RFU, PIK3R1 / Fold change vs veh, PIK3R1 / RFU, HNRNPA1 / Fold change vs veh, HNRNPA1 / RFU, RNF170 / Fold change vs veh, RNF170 / RFU, ZNF28 / Fold change vs veh, ZNF28 / RFU, RNGTT / Fold change vs veh, RNGTT / RFU, OGT / Fold change vs veh, OGT / RFU, BRD1 / Fold change vs veh, BRD1 / RFU, MARS / Fold change vs veh, MARS / RFU, ZNF655 / Fold change vs veh, ZNF655 / RFU, FAHD1 / Fold change vs veh, FAHD1 / RFU, BDP1 / Fold change vs veh, BDP1 / RFU, LRRCC1 / Fold change vs veh, LRRCC1 / RFU, ARID1A / Fold change vs veh, ARID1A / RFU, ZNF146 / Fold change vs veh, ZNF146 / RFU, ZNF330 / Fold change vs veh, ZNF330 / RFU, GPN3 / Fold change vs veh, GPN3 / RFU, C9orf123 / Fold change vs veh, C9orf123 / RFU, N4BP2L2 / Fold change vs veh, N4BP2L2 / RFU, ARFIP1 / Fold change vs veh, ARFIP1 / RFU, FAM179B / Fold change vs veh, FAM179B / RFU, BCL10 / Fold change vs veh, BCL10 / RFU, UHRF1BP1L / Fold change vs veh, UHRF1BP1L / RFU, BET1 / Fold change vs veh, BET1 / RFU, CNOT2 / Fold change vs veh, CNOT2 / RFU, ZNF268 / Fold change vs veh, ZNF268 / Fold change vs veh, ZNF507 / RFU, DGCR2 / Fold change vs veh, DGCR2 / RFU, WDSUB1 / Fold change vs veh, WDSUB1 / Fold change vs veh, HSP90B1 /// MIR3652 / RFU, ADSS / Fold change vs veh, ADSS / RFU, GK / Fold change vs veh, GK / RFU, ZNF148 / Fold change vs veh, ZNF148 / RFU, TAF9 / Fold change vs veh, TAF9 / RFU, SLC1A5 / Fold change vs veh, SLC1A5 / RFU, SLMO2 / Fold change vs veh, SLMO2 / RFU, ABCC4 / Fold change vs veh, ABCC4 / RFU, LOC101060439 /// RAP1B / Fold change vs veh, LOC101060439 /// RAP1B / RFU, RFX7 / Fold change vs veh, RFX7 / RFU, GTPBP10 / Fold change vs veh, GTPBP10 / RFU, CNEP1R1 / Fold change vs veh, CNEP1R1 / RFU, BIVM-ERCC5 /// ERCC5 / Fold change vs veh, BIVM-ERCC5 /// ERCC5 / RFU, ILF3 / Fold change vs veh, ILF3 / RFU 11762660_at / Fold change /veh 11762660_at / RFU VCAN (11757783_s_at) / Fold change /veh VCAN (11757783_s_at) / RFU DDX43 (11728927_at) / Fold change /veh DDX43 (11728927_at) / RFU KRT8 (11758188_x_at) / Fold change /veh KRT8 (11758188_x_at) / RFU NKD1 (11759106_at) / Fold change /veh NKD1 (11759106_at) / RFU SRD5A1 (11742802_a_at) / Fold change /veh SRD5A1 (11742802_a_at) / RFU TPSAB1 /// TPSB2 (11721975_s_at) / Fold change /veh TPSAB1 /// TPSB2 (11721975_s_at) / RFU GSTM3 (11746129_a_at) / Fold change /veh GSTM3 (11746129_a_at) / RFU IL23R (11737362_x_at) / Fold change /veh IL23R (11737362_x_at) / RFU TMEM51 (11727254_a_at) / Fold change /veh TMEM51 (11727254_a_at) / RFU PIWIL2 (11732686_x_at) / Fold change /veh PIWIL2 (11732686_x_at) / RFU ORM1 (11744905_x_at) / Fold change /veh ORM1 (11744905_x_at) / RFU CCDC152 (11743942_at) / Fold change /veh CCDC152 (11743942_at) / RFU ECM1 (11717891_a_at) / Fold change /veh ECM1 (11717891_a_at) / RFU IL23R (11748794_a_at) / Fold change /veh IL23R (11748794_a_at) / RFU TNFAIP8L3 (11732012_x_at) / Fold change /veh TNFAIP8L3 (11732012_x_at) / RFU MBOAT4 (11741988_at) / Fold change /veh MBOAT4 (11741988_at) / RFU 11764193_at / Fold change /veh 11764193_at / RFU TMEM53 (11763286_at) / Fold change /veh TMEM53 (11763286_at) / RFU MAGEB2 (11727129_at) / Fold change /veh MAGEB2 (11727129_at) / RFU TMEM200A (11744735_a_at) / Fold change /veh TMEM200A (11744735_a_at) / RFU CCDC152 (11751479_a_at) / Fold change /veh CCDC152 (11751479_a_at) / RFU FAM211A (11726209_a_at) / Fold change /veh FAM211A (11726209_a_at) / RFU RGS16 (11746705_a_at) / Fold change /veh RGS16 (11746705_a_at) / RFU VCAN (11755009_s_at) / Fold change /veh VCAN (11755009_s_at) / RFU RHOB (11743442_s_at) / Fold change /veh RHOB (11743442_s_at) / RFU RGS16 (11720943_a_at) / Fold change /veh RGS16 (11720943_a_at) / RFU RGS16 (11720944_at) / Fold change /veh RGS16 (11720944_at) / RFU, VPS4B / Fold change vs veh, VPS4B / RFU, CREB1 / Fold change vs veh, CREB1 / RFU, DNAJC13 / Fold change vs veh, DNAJC13 / RFU, GNAQ / Fold change vs veh, GNAQ / RFU, CDK5R1 / Fold change vs veh, CDK5R1 / RFU, ZRANB3 / Fold change vs veh, ZRANB3 / RFU, CUL4A / Fold change vs veh, CUL4A / RFU, CCNY / Fold change vs veh, CCNY / RFU, UFL1 / Fold change vs veh, UFL1 / RFU, COG3 / Fold change vs veh, COG3 / RFU, DIAPH2 / Fold change vs veh, DIAPH2 / RFU, SKA2 / Fold change vs veh, SKA2 / RFU, AFF3 / Fold change vs veh, AFF3 / RFU, LMF1 / Fold change vs veh, LMF1 / RFU, IPO11 / Fold change vs veh, IPO11 / RFU, DFFB / Fold change vs veh, DFFB / RFU, FOXP1 / Fold change vs veh, FOXP1 / RFU, CARD8 / Fold change vs veh, CARD8 / RFU, STRN3 / Fold change vs veh, STRN3 / RFU, ADK / Fold change vs veh, ADK / RFU, RASSF2 / Fold change vs veh, RASSF2 / RFU, WIPF1 / Fold change vs veh, WIPF1 / RFU, LARP1B / Fold change vs veh, LARP1B / RFU, RASA1 / Fold change vs veh, RASA1 / RFU, RB1 / Fold change vs veh, RB1 / RFU, PPFIA1 / Fold change vs veh, PPFIA1 / RFU, MAT2A / Fold change vs veh, MAT2A / RFU, CCT5 / Fold change vs veh, CCT5 / RFU, WDR92 / Fold change vs veh, WDR92 / RFU, CUX1 / Fold change vs veh, CUX1 / RFU, TTC7A / Fold change vs veh, TTC7A / RFU, TMEM135 / Fold change vs veh, TMEM135 / RFU, DEPTOR / Fold change vs veh, DEPTOR / RFU, CPM / Fold change vs veh, CPM / RFU, DNAJB6 / Fold change vs veh, DNAJB6 / RFU, CACNA2D3 / Fold change vs veh, CACNA2D3 / RFU, DTX4 / Fold change vs veh, DTX4 / RFU, TFCP2 / Fold change vs veh, TFCP2 / RFU, GMCL1 /// GMCL1P1 / Fold change vs veh, GMCL1 /// GMCL1P1 / RFU, AEBP2 / Fold change vs veh, AEBP2 / RFU, SNHG1 /// SNORD22 /// SNORD25 /// SNORD26 /// SNORD27 /// SNORD28 /// SNORD29 /// SNORD31 / Fold change vs veh, SNHG1 /// SNORD22 /// SNORD25 /// SNORD26 /// SNORD27 /// SNORD28 /// SNORD29 /// SNORD31 / Fold change (Aza/veh), C12orf56 (ProbeSet 11735607_a_at) / Fold change (ACY-1035/veh), C12orf56 (ProbeSet 11735607_a_at) / Fold change (Aza/veh), FGFR1OP (ProbeSet 11751329_s_at) / Fold change (ACY-1035/veh), FGFR1OP (ProbeSet 11751329_s_at) / Fold change (Aza/veh), VPS36 (ProbeSet 11739960_a_at) / Fold change (ACY-1035/veh), VPS36 (ProbeSet 11739960_a_at) / RFU SYPL1 (11715823_x_at) / Fold change /veh SYPL1 (11715823_x_at) / RFU IGFBP7 (11715501_s_at) / Fold change /veh IGFBP7 (11715501_s_at) / RFU REEP3 (11722064_at) / Fold change /veh REEP3 (11722064_at) / RFU IGLL1 (11728026_x_at) / Fold change /veh IGLL1 (11728026_x_at): dose or concentration left out as unconfirmed
Settings: ProbeSet 11753055_s_at; LIST B

With `Nc1ccc(-c2cccs2)cc1NC(=O)c1ccc2c(c1)cc(C1CC1)n2CCN1CCOCC1` [ACY-1035] the “Fold change vs veh, LOC101060439 /// RAP1B” value was 0.99.
